# From patent US6569878B1, “Substituted 4-amino-thiazol-2-yl compounds as cyclin-dependent kinase inhibitors” (Agouron Pharmaceuticals Inc., priority 1997, dated 2003)
# Legend:
# [1] = system: Saos-2; test: Inhibition of cell growth, MTT assay, Saos-2; format: cell-based; conditions: Saos-2, MTT assay; for IC50 / IC90: Homo sapiens
# Protocol: (§1) The water-insoluble purple formazan product was then detected spectrophotometrically. […] Plates were incubated for four hours before addition of inhibitor compounds. Different concentrations of inhibitor compounds were added in 0.5% (v/v) dimethylsulfoxide (15 μL/well), and cells were incubated at 37° C. (5% CO2) for four to six days (depending on cell type). At the end of the incubation, MTT was added to a final concentration of 0.2 mg/mL, and cells were incubated for 4 hours more at 37° C. After centrifugation of the plates and removal of medium, the absorbance of the formazan (solubilized in dimethylsulfoxide) was measured at 540 nm.
# [2] = target: T1, human CDK1 (cdc2) and cyclin B (Homo sapiens, UniProt P06493); test: Inhibition of CDK1(cdc2)/cyclin B histone H1 kinase activity; format: biochemical; conditions: read-out: Ki CDK 1/B
# T1 construct: purchased New England Biolabs (Beverly Mass.)
# Protocol: Cyclin-dependent kinase activity was measured by quantifying the enzyme-catalyzed, time-dependent incorporation of radioactive phosphate from [^32P]ATP or [^33P]ATP into a protein substrate. Unless noted otherwise, assays were performed in 96-well plates in a total volume of 50 μL, in the presence of 10 mM HEPES (N-[2-hydroxyethyl]piperazine-N′-[2-ethanesulfonic acid]) (pH 7.4), 10 mM MgCl2, 25 μM adenosine triphosphate (ATP), 1 mg/mL ovalbumin, 5 μg/mL leupeptin, 1 mM dithiothreitol, 10 mM β-glycerophosphate, 0.1 mM sodium vanadate, 1 mM sodium fluoride, 2.5 mM ethylene glycol-bis(β-aminoethyl ether)-N,N,N′N′-tetraacetic acid (EGTA), 2% (v/v) dimethylsulfoxide, and 0.03-0.4 μCi [^32/33P]ATP per reaction. Reactions were initiated with enzyme, incubated at 30° C., and terminated after 20 minutes by the addition of ethylenediaminetetraacetic acid (EDTA) to 250 mM. The phosphorylated substrate was then captured on a nitrocellulose or phosphocellulose membrane using a 96-well filtration manifold, and unincorporated radioactivity was removed by repeated washing with 0.85% phosphoric acid. Radioactivity was quantified by exposing the dried membranes to a phosphorimager.
# Apparent Ki values were measured by assaying enzyme activity in the presence of different inhibitor compound concentrations and subtracting the background radioactivity measured in the absence of enzyme. The kinetic parameters (kcat, Km for ATP) were measured for each enzyme under the usual assay conditions by determining the dependence of initial rates on ATP concentration. Inhibition data were fit to an equation for competitive inhibition using Kaleidagraph (Synergy Software), or were fit to an equation for competitive tight-binding inhibition using the software KineTic (BioKin, Ltd.).
# The complex of human CDK1 (cdc2) and cyclin B was purchased from New England Biolabs (Beverly Mass.). Alternatively, a CDK1/glutathione-S-transferase-cyclin B1 complex was purified using glutathione affinity chromatography from insect cells that had been co-infected with the corresponding baculovirus expression vectors. The assay was executed as described above at 30° C. using 2.5 units of cdc2/cyclin B, 10 μg Histone H1 protein, and 0.1-0.3 μCi [^32/33P]ATP per assay. Phosphorylated histone substrate was captured by microfiltration on a phosphocellulose P81 membrane and quantified using a phosphorimager as described above. Ki values were measured using the described curve-fitting programs.
# [3] = target: T2, CDK2/cyclin A (Homo sapiens, UniProt P24941); test: Inhibition of CDK2/cyclin A retinoblastoma kinase activity; format: biochemical; conditions: read-out: Ki CDK 2/A
# T2 construct: made in house; host or cells: CDK2: insect cells (baculovirus); cyclin A: E. coli, then limited proteolysis
# Method in brief: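 Baculovirus-expressed CDK2 with excess proteolyzed cyclin A (or purified complex), 150 nM or 5 nM, phosphorylating an Rb fragment with 25 μM [32/33P]ATP, pH 7.4, 30° C, 20 min. Filter-captured radioactivity by phosphorimager; apparent Ki from fits to competitive or tight-binding competitive inhibition using measured ATP Km.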
# [4] = system: U2-OS; test: Inhibition of cell growth, MTT assay, U2-OS; format: cell-based; conditions: for IC50 / IC90: Homo sapiens, U2OS; for % inhibition of growth in parentheses after >25: concentration not given
# Protocol: as §1
# [5] = system: HCT116; test: Inhibition of cell growth, MTT assay, HCT116; format: cell-based, human; conditions: for IC50 / IC90: Homo sapiens, HCT-116
# Protocol: as §1
# [6] = target: T3, complex of human CDK4 and cyclin D3 (Homo sapiens, UniProt P11802); test: Inhibition of CDK4/cyclin D retinoblastoma kinase activity (D-type cyclin is D3); format: biochemical; conditions: superscript a: D-type cyclin is D3; apparent Ki; read-out: Ki CDK 4/D
# T3 construct: made in house; host or cells: insect cells, co-infected with baculovirus
# Method in brief: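 Apparent Ki derived by fitting background-corrected activity to competitive (or, for tight binders, competitive tight-binding) equations with measured ATP Km. Rb phosphorylation by radiolabelled ATP was measured at 30°C, 20 min standard or 60 min at 5 nM complex for tight binders, via nitrocellulose capture and phosphorimager.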
# T1 sequence (P06493 whole entry): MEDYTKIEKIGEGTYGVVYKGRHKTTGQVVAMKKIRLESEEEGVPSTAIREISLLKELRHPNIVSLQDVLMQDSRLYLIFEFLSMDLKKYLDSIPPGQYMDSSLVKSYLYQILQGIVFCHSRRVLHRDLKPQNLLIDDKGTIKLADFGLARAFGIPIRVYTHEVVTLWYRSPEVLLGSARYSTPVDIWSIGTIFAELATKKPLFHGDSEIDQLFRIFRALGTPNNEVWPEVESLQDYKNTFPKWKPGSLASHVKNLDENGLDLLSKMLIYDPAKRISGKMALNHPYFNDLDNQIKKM
# T1 sequence (P14635 whole entry partner): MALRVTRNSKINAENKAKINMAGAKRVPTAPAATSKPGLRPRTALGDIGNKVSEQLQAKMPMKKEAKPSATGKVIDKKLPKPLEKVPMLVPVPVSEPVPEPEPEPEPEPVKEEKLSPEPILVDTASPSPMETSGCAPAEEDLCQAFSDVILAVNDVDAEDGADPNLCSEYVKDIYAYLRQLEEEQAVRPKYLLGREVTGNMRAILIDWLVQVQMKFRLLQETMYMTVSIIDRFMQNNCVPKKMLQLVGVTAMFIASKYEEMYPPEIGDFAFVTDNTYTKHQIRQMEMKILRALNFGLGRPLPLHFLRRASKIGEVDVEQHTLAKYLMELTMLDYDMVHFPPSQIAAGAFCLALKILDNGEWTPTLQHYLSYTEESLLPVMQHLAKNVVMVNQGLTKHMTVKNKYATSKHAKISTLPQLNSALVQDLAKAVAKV
# T3 sequence (P11802 whole entry): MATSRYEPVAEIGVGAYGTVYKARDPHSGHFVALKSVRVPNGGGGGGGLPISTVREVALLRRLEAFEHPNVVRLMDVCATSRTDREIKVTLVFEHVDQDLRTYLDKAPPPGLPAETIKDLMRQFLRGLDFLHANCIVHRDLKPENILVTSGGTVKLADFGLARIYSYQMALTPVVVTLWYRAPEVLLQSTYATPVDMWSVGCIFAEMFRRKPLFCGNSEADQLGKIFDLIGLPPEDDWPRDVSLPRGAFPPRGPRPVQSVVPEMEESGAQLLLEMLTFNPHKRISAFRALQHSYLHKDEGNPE
# T3 sequence (P30281 whole entry partner): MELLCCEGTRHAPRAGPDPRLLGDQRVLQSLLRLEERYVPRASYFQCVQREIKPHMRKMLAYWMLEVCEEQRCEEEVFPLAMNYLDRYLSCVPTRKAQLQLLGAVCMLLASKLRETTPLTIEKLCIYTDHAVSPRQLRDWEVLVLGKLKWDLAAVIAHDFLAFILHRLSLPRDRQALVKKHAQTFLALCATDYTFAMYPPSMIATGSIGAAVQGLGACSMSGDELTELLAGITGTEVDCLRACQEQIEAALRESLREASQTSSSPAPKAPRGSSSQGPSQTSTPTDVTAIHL
Ki [2] [nM],Ki [3] [nM],IC50 [4] [µM],IC90 [4] [µM],IC50 [5] [µM],IC90 [5] [µM],Ki [6] [nM],Structure (SMILES),IC50 [1] [µM],IC90 [1] [µM],% inhibition of growth in parentheses after >25 [4],% inhibition of growth in parentheses after >25 ([5]; concentration not given),% inhibition of growth in parentheses after >25 ([1]; concentration not given) [%]
133,200,16,> 25,12,22,17,"Nc1nc(Nc2ccc3nc[nH]c3c2)sc1C(=O)c1c(Cl)cncc1Cl [C(63), [4-Amino-2-(1H-benzoimidazol-5-yl-amino)-thiazol-5-yl]-(3,5-dichloro-pyridin-4-yl)-methanone]",9,20,84%,–,–
62,80,5.7,11,3.5,6,10.9,"Nc1nc(Nc2ccc(N3CCNC(=O)C3)cc2)sc1C(=O)c1c(F)cccc1F [C(120), 4-{4-[4-Amino-5-(2,6-difluoro-benzoyl)-thiazol-2-ylamino]-phenyl}-piperazin-2-one]",2.6,5.2,–,–,–
1370,1120,5,11,2.2,5.9,2.8,"CN1CCN(c2ccc(Nc3nc(N)c(C(=O)c4c(Cl)cncc4Cl)s3)cc2)CC1 [C(70), {4-Amino-2-[4-(4-methyl-piperazin-1-yl)-phenylamino]-thiazol-5-yl}-(3,5-dichloro-pyridin-4-yl)-methanone]",5.8,12,–,–,–
46,248,1.9,3,0.7,1.5,8,"CC(=O)c1ccc(Nc2nc(N)c(C(=O)c3ccccc3[N+](=O)[O-])s2)cc1 [C(24), 1-{4-[4-Amino-5-(2-nitro-benzoyl)-thiazol-2-ylamino]-phenyl}-ethanone]",1.4,2.8,–,–,–
231,324,8,12,18,> 25,1.5,"CN1CCN(c2ccc(Nc3nc(N)c(C(=O)c4c(Cl)cc(Br)c(N)c4Cl)s3)cc2)CC1 [C(96), (3-Amino-4-bromo-2,6-dichloro-phenyl)-{4-amino-2-[4-(4-methyl-piperazin-1-yl)-phenylamino]-thiazol-5-yl}-methanone]",4.2,10,–,(82%),–
247,86,7.8,12,4,7,24,"Nc1nc(Nc2ccc(N3CCSCC3)cc2)sc1C(=O)c1c(F)cccc1F [C(119), [4-Amino-2-(4-thiomorpholin-4-yl-phenylamino)-thiazol-5-yl]-(2,6-difluoro-phenyl)-methanone]",7,13,–,–,–
22,13.5,–,–,–,–,10.2,"Nc1nc(Nc2ccc(S(=O)(=O)NCC3CCNCC3)cc2)sc1C(=O)c1c(F)cccc1F [J(4), 4-[4-Amino-5-(2,6-difluoro-benzoyl)-thiazol-2-ylamino]-N-piperidin-4-ylmethyl-benzenesulfonamide]",–,–,–,–,–
827,482,–,–,–,–,–,"CN1CCN(c2ccc(Nc3nc(N)c(C(=O)c4c(Cl)cccc4Cl)s3)cc2)CC1 [C(71), {4-Amino-2-[4-(4-methyl-piperazin-1-yl)-phenylamino]-thiazol-5-yl}-(2,6-dichloro-phenyl)-methanone]",–,–,–,–,–
504,493,18,> 25,4.3,17,8.5,"Nc1nc(Nc2ccc(N3CCOCC3)cc2)sc1C(=O)c1c(Cl)cccc1Cl [C(55), [4-Amino-2-(4-morpholin-4-yl-phenylamino)-thiazol-5-yl]-(2,6-dichloro-phenyl)-methanone]",17,> 25,(74%),–,69
77,120,–,–,–,–,121,"CN1CCN(S(=O)(=O)c2ccc(Nc3nc(N)c(C(=O)c4c(F)cccc4F)s3)cc2)CC1 [C(116), {4-Amino-2-[4-(4-methyl-piperazine-1-sulfonyl)-phenylamino]-thiazol-5-yl}-(2,6-difluoro-phenyl)-methanone]",–,–,–,–,–
9,6.8,1.4,4.8,–,–,23,"CNS(=O)(=O)c1ccc(Nc2nc(N)c(C(=O)c3c(F)cccc3F)s2)cc1 [C(108), 4-[4-Amino-5-(2,6-difluoro-benzoyl)-thiazol-2-ylamino]-N-methyl-benzenesulfonamide]",0.31,3.2,–,–,–
325,220,–,–,–,–,–,"CN1CCN(c2ccc(Nc3nc(N)c(C(=O)c4c(F)cccc4F)s3)cc2)CC1 [C(80), {4-Amino-2-[4-(4-methyl-piperazin-1-yl)-phenylamino]-thiazol-5-yl}-(2,6-difluoro-phenyl)-methanone]",–,–,–,–,–
911,620,–,–,–,–,–,"CN1CCN(c2ccc(Nc3nc(N)c(C(=O)c4c(F)cccc4C(F)(F)F)s3)cc2)CC1 [C(100), {4-Amino-2-[4-(4-methyl-piperazin-1-yl)-phenylamino]-thiazol-5-yl}-(2-fluoro-6-trifluoromethyl-phenyl)-methanone]",–,–,–,–,–
–,216,3,5.5,1.7,3.8,21,"CC(=O)N1CCN(c2ccc(Nc3nc(N)c(C(=O)c4c(F)cccc4F)s3)cc2)CC1 [C(111), 2-[4-(1-Acetyl-piperazin-4-yl)-phenylamino]-4-amino-thiazol-5-yl-(2,6-difluorophenyl)-methanone]",3.8,5.9,–,–,–
35,28,4.7,19,–,–,83,"CN(C)S(=O)(=O)c1ccc(Nc2nc(N)c(C(=O)c3c(F)cccc3F)s2)cc1 [C(109), 4-[4-Amino-5-(2,6-difluoro-benzoyl)-thiazol-2-ylamino]-N,N-dimethyl-benzenesulfonamide]",1.5,14,–,–,–
–,23,12,22,9,19,11,"Cc1ccc(C(=O)c2sc(Nc3ccc(S(N)(=O)=O)cc3)nc2N)c(C)c1 [C(35), 4-[4-Amino-5-(2,4-dimethyl-benzoyl)-thiazol-2-ylamino]-benzenesulfonamide]",8,20,–,–,–
–,233,> 25,–,1.9,5,159,Cc1cc(N)sc1C(=O)c1sc(Nc2ccc(S(N)(=O)=O)cc2)nc1N [D(5)],17,25,–,–,–

Structure (SMILES),Ki [2] [nM],Ki [3] [nM],IC50 [4] [µM],IC90 [4] [µM],IC50 [5] [µM],IC90 [5] [µM],Ki [6] [nM],IC50 [1] [µM],IC90 [1] [µM],% inhibition of growth in parentheses after >25 [4],% inhibition of growth in parentheses after >25 ([5]; concentration not given),% inhibition of growth in parentheses after >25 ([1]; concentration not given) [%]
"CC(C)(C)OC(=O)N1CCN(c2ccc(Nc3nc(N)c(C(=O)c4c(F)cccc4F)s3)cc2)CC1 [C(101), 4-Amino-2-[4-(1-tert-butoxycarbonyl-piperazine-4-yl)-phenylamino]-thiazol-5-yl-(2,6-difluorophenyl)-methanone]",320,300,–,–,–,–,103,–,–,–,–,–
